Tests used:
collagen I protein = assay: Mouse UUO model: collagen I protein expression by Western blotting; type: in vivo, C57BL/6 mice; settings: 10 days following UUO (UUO BX 1-10 d), Western blot
Method: (§1) Contralateral kidneys served as intraindividual controls.
From each mouse, a specimen of both kidneys was snap frozen in liquid nitrogen and stored at −80° C. Kidneys were homogenized in RIPA buffer (50 mM Tris-HCl, pH 8.0, 1% Nonidet P40, 0.5% sodium deoxycholate, 150 mM NaCl, 0.1% SDS, complete Protease-inhibitor tablet (Roche)). Extracted proteins were boiled in loading buffer for 10 minutes, resolved by 8% SDS-PAGE under reducing conditions and transferred to an Immobilon-P membrane (Millipore). After blocking, the filter was incubated with the rabbit polyclonal anti-collagen I antibody (1:1000 in blocking solution, Chemicon) and immune complexes were visualized using horseradish peroxidase-conjugated goat anti-rabbit antibody (1:5000 in blocking solution, Jackson ImmunoResearch) and then processed for detection by enhanced chemiluminescence (ECL, Amersham Pharmacia).

[1] = test system: renal CCR1, CCR2, CCR5 and collagen I mRNA; assay: Mouse UUO model: renal chemokine receptor and collagen I mRNA expression by real-time quantitative RT-PCR; type: in vivo, C57BL/6 mice; settings: 10 days following UUO
Method: as §1
From each mouse, a specimen of both kidneys was snap frozen in liquid nitrogen and stored at −80° C. Total RNA was prepared as described in Chomczynski, P. and Sacci, N., Anal. Biochem. (1987), Vol. 162, pp. 156-159. The RNA pellet was air-dried, dissolved in DEPC-treated water, and stored at −80° C. One μg of total RNA was subjected to random-primed (Hexamer, Roche) reverse transcription at 42° C. for 1 hour using a modified MMLV reverse transcriptase (Superscript, Life Technologies). Real time RT-PCR was performed on a TaqMan ABI 7700 Sequence Detection System (PE Biosystems) using a heat-activated Taq DNA polymerase (Amplitaq Gold, PE Biosystems). Thermal cycler conditions contained holds at 50° C. for 2 minutes and 95° C. for 10 minutes followed by 40 cycles of 95° C. for 15 seconds and 60° C. for 60 seconds. GAPDH was used as reference gene. The following oligonucleotide primers (300 nM) and probes (100 nM) (PE Biosystems) were used: (a) murine collagen 1α1 (gb X54876; bp 1984-2102); forward primer: 5′-[…]-3′ (SEQ ID NO: 1); reverse primer: 5′-[…]-3′ (SEQ ID NO: 2); internal fluorescence labeled probe (FAM): 5′-[…]-3′ (SEQ ID NO: 3); (b) murine GAPDH (gb M32599, bp 730-836); forward primer: 5′-[…]-3′ (SEQ ID NO: 4); reverse primer: 5′-[…]-3′ (SEQ ID NO: 5); internal fluorescence labeled probe (VIC): 5′-[…]-3′ (SEQ ID NO: 6); (c) murine CCR1 (gb NM_009912, bp 487-586); forward primer: 5′-[…]-3′ (SEQ ID NO: 7); reverse primer: 5′-[…]-3′ (SEQ ID NO: 8); internal fluorescence labeled probe (T1): 5′-[…]-3′ (SEQ ID NO: 9); (d) murine CCR2 (gb NM_009915, bp 984-1095); forward primer: 5′-[…]-3′ (SEQ ID NO: 10); reverse primer: 5′-[…]-3′ (SEQ ID NO: 11); internal fluorescence labeled probe (T1, FAM): 5′-[…]-3′ (SEQ ID NO: 12); and (e) murine CCR5 (gb D83648, bp 1065-1191); forward primer: 5′-[…]-3′ (SEQ ID NO: 13); reverse primer: 5′-[…]-3′ (SEQ ID NO: 14); internal fluorescence labeled probe (T1, FAM): 5′-[…]-3′ (SEQ ID NO: 15).

C[C@@H]1CN(Cc2ccc(F)cc2)CCN1C(=O)COc1ccc(Cl)cc1NC(N)=O [BX471, (2R)-1-((4-chloro-2-(ureido)phenoxy)methyl)carbonyl-2-methyl-4-(4-fluorobenzyl)piperazine] was tested, and the “collagen I protein in renal extracts from the obstructed kidneys vs vehicle” value (collagen I protein) was “decrease”, the “renal collagen I mRNA expression in obstructed kidneys vs vehicle” value ([1]; p<0.05) was “significantly reduced” and the “renal CCR5 mRNA expression in obstructed kidneys vs vehicle” value ([1]; p=0.003) was “significantly reduced”. The “renal CCR1 mRNA expression in obstructed kidneys vs vehicle” value ([1]; p=0.005) was “significantly reduced” and the “renal CCR2 mRNA expression in obstructed kidneys vs vehicle” value ([1]; p=0.07) was “reduced, although this decrease did not reach statistical significance”.

Source: patent US6812230B2, “Non-peptide CCR1 receptor antagonists for the treatment of progressive renal fibrosis” (Schering Aktiengesellschaft, priority 2001, dated 2004)
